Experimental data published in patent US20090291857A1, “METHODS TO IDENTIFY INHIBITORS OF THE UNFOLDED PROTEIN RESPONSE” (THE BOARD OF TRUSTEES OF THE LELAND STANFORD JUNIOR …, priority 2006, published 2009).
Read-outs that look alike come from different tables or passages of the source.

Key:
[1] = tested on: IRE1α/XBP-1 pathway (XBP1-luciferase reporter); assay: High throughput XBP-luciferase reporter screen, tunicamycin/thapsigargin induced (HTS and IRE IC50); format: cell-based, human; details: Homo sapiens; for inhibition at 20 µM: Conc 20 uM
Experimental: Specifically, HT1080 fibrosarcoma cells stably transfected with the unspliced XBP-1-luciferase reporter construct (3000/well) were plated onto a solid white 384 well microplate with a multidrop dispenser (40 μL per well). The plates were then placed into an automated incubator. After 24 hours of growth, a mixture of tunicamycin (1 μg/ml) and thapsigargin (100 nM) inducers were added, and candidate compounds were then added to the plates. After 24 hours, luciferase reagent (10 μl) was added to each well and the plates were read in a Molecular Devices Analyst GT (0.2 second read per well).
As described above in Example 2, HT1080 fibrosarcoma cells stably expressing the XBP-luciferase reporter were plated in a 384 well microplate (4000 cells/well). After 24 hours, cells were treated with a mixture of tunicamycin (4 μg/ml) and thapsigargin (0.4 μM), followed by the addition of one compound per well (10 μM). We screened a total of 66,000 diverse molecules obtained from Specs, Chembridge and ChemRX. Twenty-four hours post-induction, BriteGlo luciferase substrate (10 μl) was added to each well and the signal intensity determined in a plate reader (0.2 s read per well). […] We retested 431 compounds from the initial screen, and selected 58 compounds for additional analysis, including calculation of IC50 values and inhibition of a CMV-luciferase reporter.
A. XBP-luciferase reporter construct. Firefly luciferase was inserted downstream of the IRE1α splice site in human XBP-1 to enable the conditional translation of luciferase under ER stress in an IRE1α-dependent manner. B. Selective inhibition of the XBP-luciferase reporter by irestatin 9389. HT1080 human fibrosarcoma cells stably expressing the XBP-luciferase reporter or CMV-luciferase were cultured in the presence of Tm (4 μg/ml) and Tg (0.4 μM) and irestatin 9389 at the indicated concentrations. After 24 hours, luciferase activity was analyzed in an automated plate reader. For each cell line, values are expressed as the percent inhibition of the median for Tm/Tg-treated wells, corrected for background. C. Structure of irestatin 9389. D. XBP-luciferase reporter assay. HT1080 cells stably expressing the XBP-luciferase reporter were exposed to Tm (4 μg/ml) for 24 hours or hypoxia (0.1% oxygen) for 24 or 48 hours, in the presence of DMSO or irestatin 9389 (1 μM) as indicated. Values are expressed as the fold increases over uninduced levels. E. 5X-UPRE reporter assay. HT1080 cells were co-transfected with 5X-UPRE luciferase and SV40-beta-gal reporter plasmids, followed by exposure to Tm or hypoxia as in D. For each condition, luciferase activity is normalized to beta-galactosidase expression levels as an internal control for transfection efficiency. F. Western immunoblot analysis of XBP-1s. HT1080 cells were left untreated (lane 2) or exposed to Tm (4 μg/ml) for 20 hours in the presence of DMSO vehicle (lane 1) or the indicated irestatins (2 μM; lanes 3-6). Cell lysates were resolved by SDS-PAGE and immunoblotting using antisera specific for XBP-1s (top panel) or actin and GAPDH (bottom panel) as loading controls. […] HT1080 cells were treated with DMSO or exposed to irestatin 9389 (2 μM; lane 3) in normoxia (N) or under hypoxia for 24 hours (H 24; lanes 2,3). Cells were harvested, lysed, and analyzed by immunoblotting with antisera specific for HIF-1α (top), XBP-1s (middle) or actin (bottom). H. Northern blot analysis of XBP-1s transcription targets. Cells were exposed to Tm (4 μg/ml) or hypoxia for 24 hours (H 24) in the absence or presence of irestatin 9389 (2 μM). Total RNA was analyzed by Northern blotting using radiolabeled probes specific for P58^IPK or DER-1. Total rRNA is shown as loading control.
As described above, a HT1080 fibrosarcoma cell line stably expressing a fusion of unprocessed XBP-1 inserted upstream of firefly luciferase has been developed to identify small molecule inhibitors of the IRE1α/XBP-1 signaling module. […]

XBP-1 splicing = assay: Bioluminescence imaging of XBP-1 splicing in HT1080 XBP-1s-luciferase tumors in nude mice; format: in vivo; details: IP, 50 mg/kg
Experimental: Several nude mice were implanted with HT1080 cells stably expressing a XBP-1s-luciferase construct and XBP-1 activation was examined using bioluminescence imaging. Imaging was performed using the In Vivo Imaging System (IVIS, Xenogen Corporation, Alameda, Calif.) in the Stanford Center for Innovation in In Vivo Imaging (SCI3). This device consists of a cooled CCD camera mounted on a light-tight specimen chamber. In these experiments, two different potential irestatins (3281 & 5500) were injected IP into nude mice implanted with HT1080 stably expressing XBP1s-luciferase (described in FIG. 2A).
As shown in FIGS. 9A-D, XBP-1 splicing activity was undetectable 8 hrs after irestatin 3281 injection and became detectable within 16 hrs later.

[2] = 24 h, inhibition of XBP1-luciferase reporter, read-out: Activity Class
[3] = HTS, Conc 10 uM, read-out: % Inh

| Structure (SMILES) | inhibition at 10 µM [1, 2] | inhibition at 10 µM [1, 3] | further results |
| --- | --- | --- | --- |
| COCc1cc(C)nc(SCC(=O)Nc2nc(-c3ccc(Br)cc3)cs2)c1C#N [Compound 0040] | < 10% | -4.6% | – |
| N#Cc1c(C(F)(F)F)cc(-c2ccncc2)nc1SCC(=O)Nc1nccs1 [Compound 0069] | < 10% | -5.4% | – |
| CC(=O)N1CCc2nc3sc(C(=O)Nc4cccc(C#N)c4)c(N)c3c(C(F)(F)F)c2C1 [Compound 1491] | 10 to 30% | – | – |
| Nc1c(C(=O)Nc2ccccn2)sc2nc(-c3cccs3)cc(C(F)(F)F)c12 [Compound 1567] | < 10% | -41.2% | – |
| COc1ccc(CNC(=O)c2sc3nc4c(c(C(F)(F)F)c3c2N)CCC4)cc1 [Compound 1740] | 10 to 30% | – | – |
| COc1ccc(CNC(=O)c2sc3nc4c(c(C(F)(F)F)c3c2N)CCC4)cc1OC [Compound 2399] | 10 to 30% | 13.3% | – |
| Cc1cccc(NC(=O)c2sc3nc(C)cc(C(F)(F)F)c3c2N)n1 [Compound 2750] | 10 to 30% | 11.7% | – |
| CC(=O)C1=C(C)NC(SCC(=O)Nc2nc3ccccc3s2)=C(C#N)C1c1cccnc1 (stereo not shown) [Compound 2853] | 10 to 30% | 26.5% | – |
| Cc1cc(C(F)(F)F)c2c(N)c(C(=O)Nc3cccc(C(F)(F)F)c3)sc2n1 [Compound 3290] | < 10% | -30.3% | – |
| N#Cc1cc2c(nc1SCC(=O)Nc1nccs1)CCC2 [Compound 3371] | – | – | inhibition at 20 µM ([1]; IRE IC50 assay): 72.6%; IC50 ([1]; IRE IC50 assay, each value a separate calculation, estimate, not accurate below 10 nM, read-out: IC50): 13.9 µM |
| N#Cc1cc2c(nc1SCC(=O)Nc1nccs1)CCCCC2 [Compound 3398] | < 10% | -56.2% | – |
| Cc1csc(NC(=O)c2sc3nc4c(c(C(F)(F)F)c3c2N)CCCC4)n1 [Compound 4335] | 30 to 75% | – | inhibition at 12 µM ([1]; IRE IC50 assay, Conc 12 uM): 70.4%; inhibition at 20 µM ([1]; IRE IC50 assay): 67.4% |
| N#Cc1c(C(F)(F)F)cc(-c2cccs2)nc1SCC(=O)Nc1ccccn1 [Compound 4645] | < 10% | -8.3% | – |
| COc1ccccc1NC(=O)CSc1nc2c(c(C(F)(F)F)c1C#N)CCC2 [Compound 4950] | < 10% | -6.2% | – |
| Cc1csc(NC(=O)c2sc3nc4c(c(C(F)(F)F)c3c2N)CCC4)n1 [Compound 5500] | 75 to 100% | – | inhibition at 20 µM ([1]; IRE IC50 assay): 100%; effect on XBP-1 splicing at the time points assayed (XBP-1 splicing): did not have any affect on XBP-1 splicing; toxicity (XBP-1 splicing): no apparent toxicity |
| N#Cc1sc2nc(-c3cccs3)cc(C(F)(F)F)c2c1N [Compound 6068] | < 10% | – | inhibition at 12.3 µM ([1]; HTS, Conc 12.3 uM): 5.8% |
| N#Cc1c(C(F)(F)F)cc(-c2ccccc2)nc1SCC(=O)Nc1nccs1 [Compound 6392] | < 10% | 2.7% | – |
| N#Cc1c(C(F)(F)F)cc(-c2cccs2)nc1SCC(=O)Nc1nccs1 [Compound 6451] | < 10% | -55.6% | – |
| Cc1cc(C(F)(F)F)c(C#N)c(SCC(=O)Nc2nccs2)n1 [Compound 8233] | < 10% | -59.6% | – |
| N#Cc1cccc(NC(=O)c2sc3nc4c(c(C(F)(F)F)c3c2N)CCC4)c1 [Compound 8878] | 30 to 75% | – | – |
| CCN(CC)C(=O)CSc1nc2c(c(C(F)(F)F)c1C#N)CCC2 [Compound 8920] | 10 to 30% | 25.7% | – |
| N#Cc1c(C(F)(F)F)cc(-c2cccs2)nc1SCC(=O)Nc1ccc(C(N)=O)cc1 [Compound 9165] | < 10% | -6.5% | – |
| COc1ccc(NC(=O)CSc2nc3c(c(C(F)(F)F)c2C#N)CCC3)c(OC)c1 [Compound 9388] | < 10% | -40.8% | – |
| COCc1cc(C)nc(SCC(=O)Nc2nc(-c3ccc(C)cc3)cs2)c1C#N [Compound 9668] | 10 to 30% | 19% | – |
| COCc1cc(C)nc(SCC(=O)Nc2nc(-c3ccccc3)c(C)s2)c1C#N [Compound 9766] | 10 to 30% | 26.7% | – |
| COCc1cc(C)nc(SCC(=O)Nc2nc(-c3ccccc3)cs2)c1C#N [Compound 9787] | < 10% | -122% | – |
